In patent US20260125372A1, “DYNAMIN-1-LIKE PROTEIN INHIBITORS AND USES THEREOF” (Astellas Engineered Small Molecules US, Incorporated, priority 2022, published 2026):

Target: T1, DRP1 (Homo sapiens, UniProt O00429)
T1 construct: Human DRIP1 (UniProtID: O00429.4, residues 1-699); made in house; host or cells: Escherichia coli BL21 CodonPlus DE3
Test: AlphaLISA assay (His-DRP1 / MiD49-GST interaction)
Assay type: binding
Conditions: His-DRP1 200 nM, MiD49-GST 20 nM, GMP-PNP 100 uM
Procedure: Human DRIP1 (UniProtID: O00429.4, residues 1-699), and human MiD49 (UnitProtIS: Q96C03.1, residues 126-454) was cloned into a pET15b vector as an N-terminal His-tag Fusion. All constructs were transformed in Escherichia coli host strain BL21 CodonPlus DE3. Bacteria was grown in LB media with 100 μg/ml ampicillin and 34 μg/ml chloramphenicol in an orbital shaker at 37° C. until OD600 reached 0.4, at which temperature was reduced to 16° C. Recombinant protein expression was expressed for 18 hr by the addition of IPTG at OD600 of about 0.8. All cultures were spun down and bacterial pellets were used for protein purification.
For His-DRP1, the pellets were resuspended in DRP-buffer A (20 mM Tris, 500 KCl, 1.89 β-ME, pH 8.0) and protease inhibitor cocktail (Roche), followed by cell disruption by sonication (400 W, pulse 3 sec on, 3 sec off, total 20 min). The lysate was centrifuged at 20,000 g and then supernatant applied to a preequilibrated Ni-NTA column with DRP-buffer A. The column was extensively washed with buffer A containing 50 mM imidazole. Purified His-DRP1 was eluted with DRP-buffer A containing 250 mM imidazole and dialyzed overnight at 4° C. (18 kDa cutoff) against DRP-buffer A to remove imidazole. For AlphaLISA, the His tag was retained on DRP1 full-length.
For MiD49-GST, the bacterial pellets were resuspended and sonicated in MID lysis buffer (25 mM Tris-HCl, pH 7.5, 500 mM NaCl, 5% glycerol, 1 mM TCEP, and 0.5% CHAPS). The lysate was pre-cleared at 20,300 g before applying to a glutathione column. Unbound proteins were washed using MID-buffer A (25 mM Tris-HCl, pH 7.5, 300 mM NaCl, 5% glycerol, 1 mM TCEP) and MID-buffer B (25 mM Tris-HCl, pH 7.5, 300 mM NaCl, 5% glycerol, 1 mM TCEP, 1 mM GSH). The protein was eluted with MID-buffer C (25 mM Tris-HCl, pH 7.5, 300 mM NaCl, 5% glycerol, 1 mM TCEP, 10 mM GSH). The target protein was concentrated in the ultra-filtration tube with MW cutoff 30 kDa and further purified by size-exclusion chromatography on a Superdex-200 column (GE Healthcare) in buffer A. Fractions containing MiD49-GST (126-454) were pooled, concentrated, flash-frozen as single-use aliquots in liquid nitrogen and stored at −80° C.
A total of 100 nl of compounds were plated in a 384-well AlphaPlate (PerkinElmer, Waltham, MA) at concentrations 100 uM to […] in DMSO (dilution by 3.165 for 11 concentration levels). Recombinant His-DRP1 (200 nM), MiD49-GST (20 nM), and GMP-PNP (100 uM) were mixed in assay buffer (PBS with 1.5% BSA, 1 mM DTT). Five microliters of the protein mixture were added to the plate and incubate at room temperature for 30 min. Glutathione donor beads and nickel chelate acceptor beads were diluted and mixed in assay buffer to obtain 40 μg/ml of each bead. Five microliters of the mixed beads were added to each well on the microplate leading to a final bead concentration of 20 µg/ml per well. The sealed plate was incubated at room temperature for 60 min and protected from light. The AlphaLISA signal was detected with an EnVision Multilabel Reader (excitation at 680 and emission 615 nm). GraphPad Prism was used to calculate the IC50 by applying sigmoidal dose-response fit (variable slope).

T1 sequence (O00429 1-699 isoform O00429-4): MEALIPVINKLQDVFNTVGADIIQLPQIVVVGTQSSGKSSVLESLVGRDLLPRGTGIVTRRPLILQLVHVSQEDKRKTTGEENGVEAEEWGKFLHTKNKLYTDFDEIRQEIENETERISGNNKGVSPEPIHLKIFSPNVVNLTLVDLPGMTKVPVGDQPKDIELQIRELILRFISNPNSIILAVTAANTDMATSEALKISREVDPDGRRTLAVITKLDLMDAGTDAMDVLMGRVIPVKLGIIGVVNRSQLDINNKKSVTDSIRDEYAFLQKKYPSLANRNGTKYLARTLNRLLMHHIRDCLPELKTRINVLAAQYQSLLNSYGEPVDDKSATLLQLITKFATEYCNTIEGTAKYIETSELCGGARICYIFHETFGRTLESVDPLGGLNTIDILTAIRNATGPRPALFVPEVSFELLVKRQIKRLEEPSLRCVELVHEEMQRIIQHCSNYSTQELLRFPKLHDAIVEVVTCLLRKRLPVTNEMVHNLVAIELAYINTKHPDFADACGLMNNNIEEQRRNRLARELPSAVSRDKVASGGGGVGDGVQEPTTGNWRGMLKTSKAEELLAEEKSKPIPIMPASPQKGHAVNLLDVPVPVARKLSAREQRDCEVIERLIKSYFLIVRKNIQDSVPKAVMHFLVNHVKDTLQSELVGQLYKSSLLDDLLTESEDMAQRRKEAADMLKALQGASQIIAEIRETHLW

Compound	IC50 [nM]
COCCOc1cc(-c2cncs2)nc2ccc(NC(=O)[C@@H]3C[C@H]3C#N)cc12 (racemic) [Example 19, trans-2-cyano-N-(4-(2-methoxyethoxy)-2-(thiazol-5-yl)quinolin-6-yl)cyclopropane-1-carboxamide]	500 to 1000
COCCOc1cc(-c2cncs2)nc2ccc(NC(=O)C3COC3)cc12 [Example 1, N-(4-(2-methoxyethoxy)-2-(thiazol-5-yl)quinolin-6-yl)oxetane-3-carboxamide]	< 500
CCOc1cc(-n2cnc(C)c2)nc2ccc(NC(=O)C3COC3)cc12 [Example 2, N-(4-ethoxy-2-(4-methyl-1H-imidazol-1-yl)quinolin-6-yl)oxetane-3-carboxamide]	< 500
CCOc1cc(-c2cncs2)nc2ccc(NC(=O)C3COC3)cc12 [Example 3, N-(4-ethoxy-2-(thiazol-5-yl)quinolin-6-yl)oxetane-3-carboxamide]	< 500
CCOc1cc(-c2cncs2)nc2ccc(NC(=O)C34CC(C3)C4)cc12 [Example 4, N-(4-ethoxy-2-(thiazol-5-yl)quinolin-6-yl)bicyclo[1.1.1]pentane-1-carboxamide]	500 to 1000
COc1cc(-c2cncs2)nc2ccc(NC(=O)C3COC3)cc12 [Example 5, N-(4-methoxy-2-(thiazol-5-yl)quinolin-6-yl) oxetane-3-carboxamide]	500 to 1000
CCOc1cc(-c2cnc(C)s2)nc2ccc(NC(=O)C3COC3)cc12 [Example 6, N-(4-ethoxy-2-(2-methylthiazol-5-yl)quinolin-6-yl) oxetane-3-carboxamide]	< 500
CCOc1cc(-c2cnc(OC)s2)nc2ccc(NC(=O)C3COC3)cc12 [Example 7, N-(4-ethoxy-2-(2-methoxythiazol-5-yl)quinolin-6-yl) oxetane-3-carboxamide]	< 500
CCOc1cc(-c2cnc(C3CC3)s2)nc2ccc(NC(=O)C3COC3)cc12 [Example 8, N-(2-(2-cyclopropylthiazol-5-yl)-4-ethoxyquinolin-6-yl) oxetane-3-carboxamide]	500 to 1000
O=C(Nc1ccc2nc(-c3cncs3)cc(OCCO)c2c1)C1COC1 [Example 9, N-(4-(2-hydroxyethoxy)-2-(thiazol-5-yl)quinolin-6-yl) oxetane-3-carboxamide]	< 500
O=C(Nc1ccc2nc(-c3cncs3)cc(OCCO)c2c1)C(F)(F)F [Example 10, 2,2,2-trifluoro-N-(4-(2-hydroxyethoxy)-2-(thiazol-5-yl)quinolin-6-yl)acetamide]	1000 to 10000
COCCOc1cc(-c2cnc(C)s2)nc2ccc(NC(=O)C3COC3)cc12 [Example 11, N-(4-(2-methoxyethoxy)-2-(2-methylthiazol-5-yl)quinolin-6-yl)oxetane-3-carboxamide]	500 to 1000
CCOc1cc(-c2cnc(Cl)s2)nc2ccc(NC(=O)C3COC3)cc12 [Example 12, N-(2-(2-chlorothiazol-5-yl)-4-ethoxyquinolin-6-yl)oxetane-3-carboxamide]	1000 to 10000
COCCOc1cc(-c2cncs2)nc2ccc(NC(=O)CO)cc12 [Example 13, 2-hydroxy-N-(4-(2-methoxyethoxy)-2-(thiazol-5-yl)quinolin-6-yl) acetamide]	1000 to 10000
COCCOc1cc(-c2cncs2)nc2ccc(NC(=O)[C@H](C)O)cc12 [Example 14, (S)-2-hydroxy-N-(4-(2-methoxyethoxy)-2-(thiazol-5-yl)quinolin-6-yl)propanamide]	1000 to 10000
COCCOc1cc(-c2cncs2)nc2ccc(NC(=O)[C@@H](C)O)cc12 [Example 15, (R)-2-hydroxy-N-(4-(2-methoxyethoxy)-2-(thiazol-5-yl)quinolin-6-yl)propanamide]	1000 to 10000

Compound	IC50 [nM]
COCCOc1cc(-c2cncs2)nc2ccc(NC(=O)[C@H]3C[C@@H](O)C3)cc12 [Example 16, cis-3-hydroxy-N-(4-(2-methoxyethoxy)-2-(thiazol-5-yl)quinolin-6-yl)cyclobutane-1-carboxamide]	< 500
COCCOc1cc(-c2cncs2)nc2ccc(NC(=O)[C@H]3C[C@H](O)C3)cc12 [Example 17, trans-3-hydroxy-N-(4-(2-methoxyethoxy)-2-(thiazol-5-yl)quinolin-6-yl)cyclobutane-1-carboxamide]	< 500
COCCOc1cc(-c2cncs2)nc2ccc(NC(=O)C3CC3C)cc12 (centres unmarked) [Example 18, N-(4-(2-methoxyethoxy)-2-(thiazol-5-yl)quinolin-6-yl)-2-methylcyclopropane-1-carboxamide]	< 500
COCCOc1cc(-c2cncs2)nc2ccc(NC(=O)C3CC3C(F)(F)F)cc12 (centres unmarked) [Example 20, N-(4-(2-methoxyethoxy)-2-(thiazol-5-yl)quinolin-6-yl)-2-(trifluoromethyl)cyclopropane-1-carboxamide]	1000 to 10000
COCCOc1cc(-c2cncs2)nc2ccc(NC(=O)COC)cc12 [Example 21, 2-methoxy-N-(4-(2-methoxyethoxy)-2-(thiazol-5-yl)quinolin-6-yl)acetamide]	1000 to 10000
COCCOc1cc(-c2cncs2)nc2ccc(NC(=O)C(C)OC)cc12 (centres unmarked) [Example 22, 2-methoxy-N-(4-(2-methoxyethoxy)-2-(thiazol-5-yl)quinolin-6-yl)propanamide]	< 500
COCCOc1cc(-c2cncs2)nc2ccc(NC(=O)C3CCCOC3)cc12 (centres unmarked) [Example 23, N-(4-(2-methoxyethoxy)-2-(thiazol-5-yl)quinolin-6-yl)tetrahydro-2H-pyran-3-carboxamide]	< 500
COCCOc1cc(-c2cncs2)nc2ccc(NC(=O)CCOC)cc12 [Example 24, 3-methoxy-N-(4-(2-methoxyethoxy)-2-(thiazol-5-yl)quinolin-6-yl)propanamide]	500 to 1000
CCCOC(C)C(=O)Nc1ccc2nc(-c3cncs3)cc(OCCOC)c2c1 (centres unmarked) [Example 25, N-(4-(2-methoxyethoxy)-2-(thiazol-5-yl)quinolin-6-yl)-2-propoxypropanamide]	< 500
CCOC(C)C(=O)Nc1ccc2nc(-c3cncs3)cc(OCCOC)c2c1 (centres unmarked) [Example 26, 2-ethoxy-N-(4-(2-methoxyethoxy)-2-(thiazol-5-yl)quinolin-6-yl)propanamide]	< 500
COCCOc1cc(-c2cncs2)nc2ccc(NC(=O)C(F)(F)CO)cc12 [Example 27, 2,2-difluoro-3-hydroxy-N-(4-(2-methoxyethoxy)-2-(thiazol-5-yl)quinolin-6-yl)propanamide]	500 to 1000
COCCOc1cc(-c2cncs2)nc2ccc(NC(=O)C(C)C#N)cc12 (centres unmarked) [Example 28, 2-cyano-N-(4-(2-methoxyethoxy)-2-(thiazol-5-yl)quinolin-6-yl)propanamide]	< 500
COCCOc1cc(-c2cncs2)nc2ccc(NC(=O)C3(OC)CC3)cc12 [Example 29, 1-methoxy-N-(4-(2-methoxyethoxy)-2-(thiazol-5-yl)quinolin-6-yl)cyclopropane-1-carboxamide]	> 10000
COCCOc1cc(-c2cncs2)nc2ccc(NC(=O)C3CC(F)(F)C3)cc12 [Example 30, 3,3-difluoro-N-(4-(2-methoxyethoxy)-2-(thiazol-5-yl)quinolin-6-yl)cyclobutane-1-carboxamide]	1000 to 10000
COCCOc1cc(-c2cncs2)nc2ccc(NC(=O)C34CC(C3)C4)cc12 [Example 31, N-(4-(2-methoxyethoxy)-2-(thiazol-5-yl)quinolin-6-yl)bicyclo[1.1.1]pentane-1-carboxamide]	1000 to 10000
COCCOc1cc(-c2cncs2)nc2ccc(NC(=O)C(C)COC)cc12 (centres unmarked) [Example 32, 3-methoxy-N-(4-(2-methoxyethoxy)-2-(thiazol-5-yl)quinolin-6-yl)-2-methylpropanamide]	500 to 1000
